Data set [1] can be described thus: TEAC assay using ABTS radical. Conditions: 6 min, ratio of slopes to trolox (melatonin dissolved in EtOH); for TEAC from DMSO: stock in DMSO diluted with PBS pH 7.4, 37 °C; for TEAC from THF: stock in THF diluted with PBS pH 7.4, 37 °C.
The nature of data set [2]: Study of aggregation by UV-Vis spectrophotometry. The note with it: for change of UV spectrum with increasing ratio of PBS: starting from THF solutions. Type of data set: physicochemical. A digest of the protocol: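 Conjugates dissolved in THF and diluted with THF or THF-PBS mixtures (1:1, 1:3) at identical carotenoid concentration; separately, 2.5∙10−4 M DMSO stocks added to PBS to final 0.3125–5 μM carotenoid. UV-Vis spectra recorded to follow band shifts and fine-structure changes; DMSO-PBS solutions also examined by DLS.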

Data set [3] can be described thus: Hydrodynamic diameter and colloidal stability of aggregates by dynamic light scattering. The format is physicochemical. Conditions: for mean size (hydrodynamic diameter) / zeta potential: 37 °C; for PDI: sd^2/mean size^2. In short, it runs like this: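 Hydrodynamic diameter (number-weighted; PDI as sd^2/mean size^2) and zeta potential were measured by DLS at 173° scattering angle. Samples, 0.3125–5 µM DMSO solutions diluted into PBS, were examined after 6 min incubation at 37 °C.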

A short description of another data set: Water dispersibility. The format is physicochemical. The note with it: distilled water, sonication. The procedure:
About 2 mg of the examined substance was dispersed in 40 mL of distilled water and the suspension was sonicated for 2 min. The addition of water was continued with 10 mL portions, after each portion the mixture was sonicated for 2 min. This process was continued till a homogenous solution was observed by naked eye. Then, the solution was let to stand for an hour to inspect any precipitate formation, but no changes occurred in any of the cases.

A short description of data set [4]: FRAP assay for the antioxidant capacity. Details: key to FRAP: slope of concentration-absorbance line divided by Trolox slope. The note with it: stock in THF, acetate buffer pH 3.0, 37 °C, 15 min; ratio of slopes to trolox (melatonin in EtOH). A digest of the protocol:
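Fe^3+→Fe^2+ reduction by antioxidants (THF stocks) in FRAP reagent (FeCl3/TPTZ, 300 mM acetate buffer pH 3.0), 15 min at 37 °C in the dark. Absorbance at 600 nm measured in triplicate at 0-17.5 μM final. FRAP value = slope of absorbance-concentration line divided by Trolox slope.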

A short description of data set [5]: Kinetic solubility in PBS pH 7.4. Type of data set: physicochemical. Conditions: aqueous buffer, kinetic from dmso stock, kinetic solubility after 2 h, at 37 °C in PBS, nominal 250 μM, read-out: Kin.Sol. The procedure: On a 96-well polypropylene plate (Greiner bio-one) 7.5 μL stock solutions were added to 292.5 μL PBS (pH 7.4) to make a solution with the nominal concentration of 250 μM. For each sample 3 replicates were measured. […] After that, each sample was transferred into a filter plate (MSSBLPC, Multiscreen Filter plate, Merck kGaA) and filtered (Vaccum Manifold, Merck kGaA, Darmstadt, Germany). The filtrates were transferred into UV-Star microplates (Greiner bio-one) and acetonitrile (AcN) was added to each well to avoid precipitation. The final solvent ratio was AcN:PBS 70:30. UV-Vis spectra were collected for each replicate by a Multiskan Sky UV-plate reader (Thermo Scientific, Waltham, MA, USA) in a wavelength range of 250–700 nm, with 1 nm steps. After blank substraction, the kinetic solubility of the samples was determined based on absorption at λmax using a 5-point calibration curve for each sample recorded in 70:30 AcN:PBS solvent.
Limit of detection (LOD) and limit of quantification (LOQ) were calculated with Equations (1) and (2) respectively, based on UV-Vis spectral data:(1) LOD=3.3×σ/s (2) LOQ=10×σ/s where the σ value in the equations stands for the standard deviation of the absorption base line at 700 nm (where no sample-specific absorption was observed). The s value is the slope of the calibration curve recorded for each sample based on their absorption at λmax (Table 4.)

Data set [6] is described as follows: BBB-specific permeability assay (BBB-PAMPA). The format is in vitro ADME. The note with it: PBS pH 7.4, 37 °C, read-out: BBB-PAMPA Pe. The procedure:
In vitro, blood-brain barrier-specific (BBB) permeability studies were carried out using the PAMPA technique. First, solutions with the nominal concentration of 250 μM were prepared as described in Section 3.1. The solutions were shaken for 1 h at room temperature, at 300 rpm. For preparing the artificial BBB-specific membrane 16 mg BPLE and 8 mg cholesterol were dissolved in 600 μL dodecane. Each well of the donor plate (MultiscreenTM-IP, MAIPNTR10, pore size […], Merck kGaA) was coated with 5 μL lipid solution, and fitted into the acceptor plate containing 300 μL PBS (pH 7.4) with 2.5% DMSO, and 150–150 μL of the PBS solutions (made from the DMSO stock solutions) were put on the donor plate’s artificial membrane. The sandwich plate system was covered with a tissue of wet paper and a plastic lid to avoid evaporation of the solvent, and it was incubated at 37 °C for 4 h. In the end, the donor solutions were filtrated (Vacuum Manifold, Merck kGaA), and the initial 250 μM solutions (cD(0)), the donor (cD(t)) and acceptor solution (cA(t)) were analyzed by a Multiskan Sky UV-plate-reader (Thermo Scientific) in the wavelength range of 250–700 nm, with 1 nm steps.
BBB permeability was calculated using the effective permeability equation used for iso-pH conditions described by A. Avdeef:(3) Pe=−2.303/A·(t−τss)·(1/1+rv)·lg[−rv+(1+rv/1−MR)·cD(t)/cD(0)] […]
(In general: PAMPA measures passive passage across an artificial lipid membrane.)

The mark [7] stands for this setting: 0.3125 μM in PBS from DMSO stock.
The mark [8] stands for this setting: 0.625 μM in PBS from DMSO stock.

Structures are written as SMILES. Values after ≈ are worked out from the molar mass of the structure shown.

For `CC1=C[C@H](OC(=O)CCC(=O)O)CC(C)(C)[C@H]1/C=C/C(C)=C/C=C/C(C)=C/C=C/C=C(C)/C=C/C=C(C)/C=C/C1=C(C)C[C@@H](OC(=O)CCC(=O)O)CC1(C)C` [Compound 10, Lutein bissuccinate], the “TEAC from DMSO” value in data set [1] is given as 1.49. Further, the “TEAC from THF” value in data set [1] is 2.356. Moreover, the “change of UV spectrum with increasing ratio of PBS” value in data set [2] is listed as “did not cause much change”. For the same molecule, the “mean size (hydrodynamic diameter)” value worked out at 453.5 nm in data set [3] (setting [7]); 215.4 nm in data set [3] (setting [8]); 263.3 nm in data set [3] (1.25 μM in PBS from DMSO stock); 123.1 nm in data set [3] (2.5 μM in PBS from DMSO stock); 143.8 nm in data set [3] (3.75 μM in PBS from DMSO stock); 29.2 nm in data set [3] (5 μM in PBS from DMSO stock). Moreover, the zeta potential in data set [3] (setting [7]) stood at 103.0 mV; in data set [3] (setting [8]), 44.4 mV; in data set [3] (1.25 μM in PBS from DMSO stock), 89.6 mV; in data set [3] (2.5 μM in PBS from DMSO stock), 0.0 mV; in data set [3] (3.75 μM in PBS from DMSO stock), 0.0 mV; in data set [3] (5 μM in PBS from DMSO stock) it was 20.3 mV. For the same molecule, the PDI in data set [3] (0.3125 μM in PBS) came out at 0.0235; in data set [3] (0.625 μM in PBS), 0.0320; in data set [3] (1.25 μM in PBS), 0.0608; in data set [3] (2.5 μM in PBS), 0.0108; in data set [3] (3.75 μM in PBS) it was 0.0121; in data set [3] (5 μM in PBS), 0.0249. In addition, the “Water Dispersibility” value in “Water dispersibility” is reported as 1.5 mg/100 mL. Also, the FRAP in data set [4] is reported as 0.184.

Consider `CC1=C(/C=C/C(C)=C/C=C/C(C)=C/C=C/C=C(C)/C=C/C=C(C)/C=C/C2=C(C)C[C@@H](OC(=O)CCC(=O)O)CC2(C)C)C(C)(C)C[C@H](O)C1` [Compound 11, Zeaxanthin monossuccinate], for which the “TEAC from DMSO” value in data set [1] was 0.81. Besides, in data set [1], the “TEAC from THF” value came out at 1.056. Also, in data set [2] (from THF:aqueous solutions), the “type of aggregates formed” value was “J-type (head-to-tail) aggregates”. Besides, the “change of UV spectrum with increasing ratio of PBS” value in data set [2] is “bathochromic shift”. In addition, the “mean size (hydrodynamic diameter)” value in data set [3] (setting [7]) came out at 30.98 nm; in data set [3] (setting [8]), 277.80 nm; in data set [3] (1.25 μM in PBS from DMSO stock), 25.09 nm; in data set [3] (2.5 μM in PBS from DMSO stock), 32.93 nm; in data set [3] (3.75 μM in PBS from DMSO stock), 17.71 nm; in data set [3] (5 μM in PBS from DMSO stock), 150.00 nm. The zeta potential is reported as 51.7 mV in data set [3] (setting [7]); 123.0 mV in data set [3] (setting [8]); 80.5 mV in data set [3] (1.25 μM in PBS from DMSO stock); 80.6 mV in data set [3] (2.5 μM in PBS from DMSO stock); 77.3 mV in data set [3] (3.75 μM in PBS from DMSO stock); −23.5 mV in data set [3] (5 μM in PBS from DMSO stock). Moreover, the PDI is reported as 0.0256 in data set [3] (0.3125 μM in PBS); 0.0264 in data set [3] (0.625 μM in PBS); 0.0310 in data set [3] (1.25 μM in PBS); 0.0420 in data set [3] (2.5 μM in PBS); 0.1357 in data set [3] (3.75 μM in PBS); 0.0297 in data set [3] (5 μM in PBS). The “Water Dispersibility” value in “Water dispersibility” is reported as “less than 0.3 mg/100 mL”. The FRAP in data set [4] is recorded as 0.145.

Consider `COc1ccc2[nH]cc(CCNC(C)=O)c2c1` [Melatonin, melatonin, reference compound], for which the solubility kinetic at 2 h in data set [5] stood at 123 ± 9.4 µM (≈ 28.6 µg/mL). In addition, the Papp at 4 h, 250 μM in data set [6] stood at 2.97 ± 1.18 ×10⁻⁶ cm/s.

The record behind these values is publication PMC9369794 (Molecules, 2022).
